Data taken from paper PMC12234328, “A naphthalimide derivative exerts potent antiplatelet and antithrombotic activities without a bleeding tendency” (Frontiers in Pharmacology, 2025).

Key:
Assay type in all cases: in vivo
[1] = tested on: thrombus formation in mesenteric venules; assay: Fluorescein sodium-mediated thrombus formation in mesenteric microvessels of mice; conditions: n = 6, mean ± SEM (DMSO 117.7 ± 12.4 s)
Description: Male ICR mice (weighing 20–25 g and aged 5–6 weeks) were purchased from BioLasco (Taipei, Taiwan). The animal use protocol for this project was approved by the Affidavit of Approval of Animal Use Protocol–Taipei Medical University (LAC-2020–0074). All animal experiments were conducted in accordance with the Guide for the Care and Use of Laboratory Animals, Eighth Edition (2011).
The mice were anesthetized with an oxygen–air mixture containing 3% isoflurane at a gas flow rate of 1.5–2 L/min. A bolus dose (bolus volume: 20 μL) of compound 6 (0.3 mg/kg, 0.6 mg/kg, or 1.2 mg/kg), DMSO (solvent control; 1.1 g/kg), or aspirin (20 mg/kg; positive control) was intravenously administered through the tail vein before the administering sodium fluorescein (15 mg/kg). The small intestinal segments were placed on a transparent culture dish, and the mesenteric vessels were observed under a microscope. Venules (20–30 μm) were selected and irradiated with light (wavelength <520 nm) to induce endothelial damage, causing thrombus formation and subsequent vessel occlusion. The time required to occlude a microvessel was recorded ([Lin et al., 2013]). A formula for dose translation based on the […] was used to calculate the appropriate dose for use in the mice ([Reagan-Shaw et al., 2008]). [Reagan-Shaw et al. (2008)] reported that the animal dose should not be extrapolated to a human equivalent dose (HED) by a simple conversion based on body weight. […] The formula for dose translation based on BSA is as follows: HED (mg/kg) = Animal dose (mg/kg) multiply by Animal Km/Human Km. Mouse Km is 3 and Human Km is 37.
FIGURE 3 Effects of compound 6 on thrombosis and hemostasis in mice. Mice were treated with compound 6 (0.3, 0.6, or 1.2 mg/kg), DMSO (solvent control), or aspirin (20 mg/kg; positive control) via intravenous route for 10 min. (A) The microthrombus formation (arrows) in mesenteric venules. Scale bar = 30 μm. […] Each point on the plot indicates a mouse (n = 6). Data (A,B) are presented as means ± SEM (n = 6). *p < 0.05 and ***p < 0.001 compared with the DMSO group.

[2] = tested on: FeCl3-induced thrombosis in mesenteric artery; assay: FeCl3-induced mesenteric artery thrombosis in mice; conditions: 1.2 mg/kg i.v., 30% FeCl3, relative to DMSO group
Description: Mice were anesthetized with an oxygen–air mixture containing 3% isoflurane at a gas flow rate of 1.5–2 L/min. To label platelets, they were injected with the fluorescent dye rhodamine 6G (0.6 mg/kg). 10 min before FeCl3 treatment, mice were intravenously administered DMSO (1.1 g/kg, solvent control), compound 6 (1.2 mg/kg), or aspirin (20 mg/kg, positive control). The mesenteric arteries were surgically exposed and injured by applying a filter paper saturated with 30% FeCl3 for 5 min to induce thrombosis. Thrombus formation was then continuously monitored using a fluorescence microscope (Olympus, Tokyo, Japan).
FIGURE 4 Effects of compound 6 on collagen/epinephrine-induced pulmonary thrombosis and FeCl3-induced thrombosis in mesenteric artery. Mice were intravenously administered with DMSO (solvent control), compound 6 (1.2 mg/kg), or aspirin (20 mg/kg, positive control) for 10 min (A) Mice were injected with collagen/epinephrine to induce pulmonary embolism, which was detected through staining with Evans blue (left panel). The survival rate was recorded for 24 h (right panel). Data are presented as means ± SEM (n = 6). **p < 0.01 compared with the sham group. #p < 0.05 compared with the DMSO (solvent control) group. (B) FeCl3-induced thrombosis in mesenteric artery as observed under real-time fluorescent microscopy. […] Scale bar = 100 µm. […]

[3] = tested on: collagen/epinephrine-induced pulmonary thrombosis; assay: Collagen/epinephrine-induced pulmonary embolism in mice; conditions: 1.2 mg/kg i.v., relative to DMSO group
Description: Pulmonary embolism was induced using collagen and epinephrine in […] ICR mice according. Briefly, mice were intravenously injected with a bolus dose of DMSO (1.1 g/kg, solvent control), compound 6 (1.2 mg/kg), or aspirin (20 mg/kg, positive control). Subsequently, a mixture of collagen (0.6 mg/kg) and epinephrine (0.2 mg/kg) was administered via the tail vein. When respiration became severely weakened but the heart was still beating, 0.5 mL of Evans blue solution (1% in saline) was injected into the heart. The lungs were then excised and photographed. Mouse mortality was monitored for 24 h, and all surviving mice were euthanized immediately after the experiment. Each group consisted of six animals.
FIGURE 4 Effects of compound 6 on collagen/epinephrine-induced pulmonary thrombosis and FeCl3-induced thrombosis in mesenteric artery. Mice were intravenously administered with DMSO (solvent control), compound 6 (1.2 mg/kg), or aspirin (20 mg/kg, positive control) for 10 min (A) Mice were injected with collagen/epinephrine to induce pulmonary embolism, which was detected through staining with Evans blue (left panel). The survival rate was recorded for 24 h (right panel). […]
(A) Mice were injected with collagen/epinephrine to induce pulmonary embolism, which was detected through staining with Evans blue. (B) The survival rate was recorded for 24 h. […]

`CCCCN1C(=O)c2cccc3c(NCCNC(=O)C45CC6CC(CC(C6)C4)C5)ccc(c23)C1=O` [compound 6] was tested, and the Occlusion time ([1]; 0.3 mg/kg i.v.) was 211.5 ± 15.8 s, the Occlusion time ([1]; 0.6 mg/kg i.v.) was 333.5 ± 45.6 s and the Occlusion time ([1]; 1.2 mg/kg i.v.) was 451.5 ± 27.4 s. The “Platelet accumulation on the injured vessels (rhodamine 6G-labeled platelets)” value [2] was “delayed platelet accumulation” and the “Collagen/epinephrine-induced pulmonary thrombosis (Evans blue staining of lung)” value [3] was “could prevent”.
